Source: patent US8038997B2, “Anti-marinobufagenin antibodies and methods for their use” (priority 2005, dated 2011)

Assays:
3E9 mAb = experiment: Cross-reactivity of the 3E9 mAb (50% displacement of bound MBG); assay type: binding, mouse; conditions: amount of MBG for 50% displacement versus amount of cross-reactant
Source text: (§1) The percent cross-reactivity of the 3E9, 4G4 and 4H2 mAbs was defined as the ratio of the amount of MBG required to displace 50% of maximally bound MBG from the particular anti-MBG mAb, versus the amount of the cross-reactant to give the same 50% displacement. The binding specificities of the 3E9 mAb for a panel of steroids are shown in Table I; those for the 4112 and 4G4 mAbs are shown in Table II.

4H2 mAb = experiment: Cross-reactivity of the 4H2 mAb (50% displacement of bound MBG); assay type: binding, mouse; conditions: amount of MBG for 50% displacement versus amount of cross-reactant
Source text: as §1

4G4 mAb = experiment: Cross-reactivity of the 4G4 mAb (50% displacement of bound MBG); assay type: binding, mouse; conditions: amount of MBG for 50% displacement versus amount of cross-reactant
Source text: as §1

[1] = tested on: polyclonal antidigoxin rabbit antibody; experiment: DELFIA immunoassay, displacement of digoxin standards; assay type: binding; conditions: equimolar concentrations of MBG and its conjugate
Source text: Prior to immunization, the conjugate MBG-glycoside-BSA was compared with MBG for its ability to react with polyclonal antidigoxin rabbit antibody, using a DELFIA immunoassay.

[2] = Experimental uremic cardiomyopathy: partial nephrectomy, MBG infusion, immunization against MBG-BSA; conditions: male, Sprague-Dawley, rat, plasma, other: infusion with an osmotic minipump, 10 μg/kg per day
Experimental: (§2) Male, Sprague-Dawley were use in this study. Rats subjected to sham surgery and no MBG infusion or partial nephrectomy were referred to as Sham (n=18). […] MBG-infused rats were referred to as MBG (n=20). Rats immunized against MBG-BSA conjugate before partial nephrectomy were referred to as PNx-IM (n=18).
(§3) MBG was isolated from toad (Bufo Marinus) venom. […] MBG was infused for a period of 4 weeks at 10 μg/kg per day with an osmotic minipump (Alzet Model 2004, Durect Corp).
(§4) Partial nephrectomy (five-sixth nephrectomy) was induced by removal of the right kidney and selective infarction of two-thirds of the left kidney with silk ligatures.
(§5) Rats were immunized with an MBG-BSA conjugate and subjected to partial nephrectomy. The immunization schedule was 3 weekly injections (250 μg/kg per week SQ) in complete Freund's adjuvant before the partial nephrectomy with a last boost at the time of surgery.
(§6) BP was measured once a week by the tail-cuff method in conscious, restrained rats with equipment made by IITC, Inc (Amplifier model 229, Monitor model 31, Test chamber Model 306; IITC Life Science). Before sacrifice at 4 weeks, animals had ventricular pressures determined by placement of a 2F Millar Microtip Catheter Transducer (Millar Instruments Inc) into the left ventricle through a carotid insertion. Hemodynamic data were acquired at 500 Hz and stored electronically using a BioPac MP110 acquisition system and AcqKnowledge 4.7.3 software (BIOPAC Systems, Inc). The values of left ventricular end-diastolic pressure (LVEDP), systolic pressure, developed pressure, maximal velocity of rise or fall in pressure (dP/dt) and the time constant for isovolumic relaxation were determined using standard methods. At the end of 4 weeks, 2D and M-mode echocardiographic studies were performed using a Philips Sonos 5500 cardiovascular ultrasound imaging system (Philips Medical Systems) equipped with a 15 MHz linear transducer. Parasternal long-axis and short-axis views were obtained.
(§7) MBG and ouabain-like compound (OLC) in plasma and urine was determined at 4 weeks after extraction with C-18 columns.
(§8) At the time of sacrifice, left ventricles were quickly dissected out, frozen in liquid nitrogen, and stored at −80° C. until further analysis. Western blot analysis was performed using SDS-PAGE gels (Ready Gel, BioRad).
(§9) Total protein carbonyl concentration of both the plasma and left ventricular homogenate was determined by ELISA using the Zentech PC Test kit (Northwest Life Science Specialties). Total plasma malondialdehyde was measured spectrophotometrically using the Bioxytech MDA-586 kit (Oxis Research).
(§10) To measure sarcoplasmic reticulum calcium ATPase activity, which is predominantly SERCA2a activity in left ventricles of rat cardiac tissue, the method of Simonides and van Hardeveld (Simonides and van Hardeveld, Anal. Biochem. 191:321-331, 1990) was used with minor modifications.
(§11) Hematocrit was measured from whole blood collected in heparinized capillary tubes and spun on a microhematocrit centrifuge (Fisher Scientific). Plasma creatinine was determined spectrophotometrically with a colorimetric end point assay (Teco Diagnostics). Plasma aldosterone levels were measured by ELISA (Cayman). Plasma parathyroid hormone was assayed using the Rat Intact PTH ELISA kit (Immutopics). All of the analyses were performed on blood collected upon sacrifice at 4 weeks.

Sprague-Dawley rats = experiment: as above
Experimental: as §2, §3, §4, §5, §6, §7, §8, §9, §10, §11

[3] = 4 weeks after MBG infusion or immunization prior to partial nephrectomy

For `C[C@]12CC[C@H](O)C[C@H]1CC[C@@H]1[C@@H]2CC[C@]2(C)[C@@H](c3ccc(=O)oc3)CC[C@]12O` [Bufalin], the Percent cross-immunoreactivity (3E9 mAb) was 0.25%, the “4H2 Percent cross-immunoreactivity” value (4H2 mAb) was 0.07% and the “4G4 Percent cross-immunoreactivity” value (4G4 mAb) was 0.08%.
For `CC(=O)O[C@H]1[C@H]2O[C@]23[C@@H]2CC[C@@H]4C[C@@H](O)CC[C@]4(C)[C@H]2CC[C@]3(C)[C@H]1c1ccc(=O)oc1` [Cinobufagin], the Percent cross-immunoreactivity (3E9 mAb) was 1.4%, the “4H2 Percent cross-immunoreactivity” value (4H2 mAb) was 0.11% and the “4G4 Percent cross-immunoreactivity” value (4G4 mAb) was 0.07%.
With `CC(=O)O[C@H]1[C@H]2O[C@]23[C@@H]2CC[C@]4(O)C[C@@H](O)CC[C@]4(C)[C@H]2CC[C@]3(C)[C@H]1c1ccc(=O)oc1` [Cinobufotalin] the Percent cross-immunoreactivity (3E9 mAb) was 4%, the “4H2 Percent cross-immunoreactivity” value (4H2 mAb) was 58% and the “4G4 Percent cross-immunoreactivity” value (4G4 mAb) was 43%.
Compound `C[C@]12C[C@H](O)[C@H]3[C@@H](CCC4=CC(=O)CC[C@@]43C)[C@@H]1CC[C@@H]2C(=O)CO` [Corticosterone] has a Percent cross-immunoreactivity (3E9 mAb) of under 0.01%.
Compound `C[C@H]1O[C@@H](O[C@H]2[C@@H](O)C[C@H](O[C@H]3[C@@H](O)C[C@H](O[C@H]4CC[C@@]5(C)[C@H](CC[C@@H]6[C@@H]5CC[C@]5(C)[C@@H](C7=CC(=O)OC7)CC[C@]65O)C4)O[C@@H]3C)O[C@@H]2C)C[C@H](O)[C@@H]1O` [Digitoxin] has a Percent cross-immunoreactivity (3E9 mAb) of 0.7%.
With `C[C@H]1O[C@@H](O[C@H]2[C@@H](O)C[C@H](O[C@H]3[C@@H](O)C[C@H](O[C@H]4CC[C@@]5(C)[C@H](CC[C@@H]6[C@@H]5C[C@@H](O)[C@]5(C)[C@@H](C7=CC(=O)OC7)CC[C@]65O)C4)O[C@@H]3C)O[C@@H]2C)C[C@H](O)[C@@H]1O` [Digoxin] the Percent cross-immunoreactivity (3E9 mAb) was 1.8%, the “4H2 Percent cross-immunoreactivity” value (4H2 mAb) was 0.03% and the “4G4 Percent cross-immunoreactivity” value (4G4 mAb) was 0.003%.
With `C[C@]12CC[C@H](O)C[C@@]1(O)CC[C@@H]1[C@@H]2CC[C@]2(C)[C@@H](c3ccc(=O)oc3)CC3O[C@@]312` (stereo partly drawn) [MBG, 3β,5β-dihydroxy-14,15-epoxy bufadienolide] the Percent cross-immunoreactivity (3E9 mAb) was 100%, the “4H2 Percent cross-immunoreactivity” value (4H2 mAb) was 100% and the “4G4 Percent cross-immunoreactivity” value (4G4 mAb) was 100%. For the same compound, the “displacement of digoxin standards” value [1] was “exactly similar displacement of digoxin standards”, the concentration at 4 weeks [2] was 0.546 ± 0.034 nM and the Hematocrit (Sprague-Dawley rats; [3]) was 44.6 ± 0.9%. For the same compound, the “Left ventricular carbonylated protein” value (Sprague-Dawley rats; [3]) was 505 ± 22 pmol/mg protein, the “Plasma [OLC]” value (Sprague-Dawley rats; [3]) was 493 ± 41 pmol/L and the Plasma aldosterone (Sprague-Dawley rats; [3]) was 322 ± 38 pg/mL. For the same compound, the Plasma carbonylated protein (Sprague-Dawley rats; [3]) was 378 ± 15 pmol/mg protein, the Plasma creatinine (Sprague-Dawley rats; [3]) was 0.52 ± 0.07 mg/dL and the Plasma parathyroid hormone (Sprague-Dawley rats; [3]) was 41 ± 9 pg/mL. The Plasma total malondialdehyde (Sprague-Dawley rats; [3]) was 474 ± 41 nm, the “Urinary MBG excretion (UMBGV)” value (Sprague-Dawley rats; [3]) was 49.1 ± 3.5 pmol/24 h and the “Urinary OLC excretion (UOLCV)” value (Sprague-Dawley rats; [3]) was 10.6 ± 0.9 pmol/24 h. For the same compound, the “left ventricular hemodynamics (dP/dt, LVEDP, time constant for isovolumic relaxation)” value (Sprague-Dawley rats; Millar catheter after 4 weeks) was “only the changes in LVEDP and time constant for isovolumic relaxation achieved statistical significance”, the “heart weight / cardiac size” value (Sprague-Dawley rats; after 4 weeks) was “significant increases in heart weight” and the “echocardiographic changes (wall thickness, chamber size, FS)” value (Sprague-Dawley rats; at 4 weeks, MBG versus sham, immunization versus partial nephrectomy) was “not associated with significant changes”. For the same compound, the “systolic BP during the 4 weeks of observation” value (Sprague-Dawley rats; tail-cuff, conscious rats, MBG versus control, immunization versus partial nephrectomy) was “some increases in BP”.
In the case of `C[C@]12CC[C@H](OC(=O)CCCCCCC(=O)N[C@@H](CCCN=C(N)N)C(=O)O)C[C@@]1(O)CC[C@@H]1[C@@H]2CC[C@]2(C)[C@@H](c3ccc(=O)oc3)C[C@H]3O[C@]132` [Marinobufotoxin], the Percent cross-immunoreactivity (3E9 mAb) is reported as 4%, the “4H2 Percent cross-immunoreactivity” value (4H2 mAb) is reported as 55% and the “4G4 Percent cross-immunoreactivity” value (4G4 mAb) is reported as 44%.
In the case of `C[C@]12C[C@@H](O)[C@H]3[C@@H](CC[C@]4(O)C[C@@H](O)C[C@@H](O)[C@]34CO)[C@@]1(O)CC[C@@H]2C1=CC(=O)OC1` [Ouabagenin], the Percent cross-immunoreactivity (3E9 mAb) is reported as under 0.01%.
In the case of `C[C@@H]1O[C@@H](O[C@H]2C[C@@H](O)[C@]3(CO)[C@H]4[C@H](O)C[C@]5(C)[C@@H](C6=CC(=O)OC6)CC[C@]5(O)[C@@H]4CC[C@]3(O)C2)[C@H](O)[C@H](O)[C@H]1O` [Ouabain], the Percent cross-immunoreactivity (3E9 mAb) is reported as 0.3%, the “4H2 Percent cross-immunoreactivity” value (4H2 mAb) is reported as 0.03% and the “4G4 Percent cross-immunoreactivity” value (4G4 mAb) is reported as 0.004%.
Compound `C[C@]12C=CC(=O)C=C1CC[C@@H]1[C@@H]2C(=O)C[C@@]2(C)[C@H]1CC[C@]2(O)C(=O)CO` [Prednisone] has a Percent cross-immunoreactivity (3E9 mAb) of under 0.01%.
In the case of `CC(=O)[C@H]1CC[C@H]2[C@@H]3CCC4=CC(=O)CC[C@]4(C)[C@H]3CC[C@]12C` [Progesterone], the Percent cross-immunoreactivity (3E9 mAb) is reported as 0.3%.
`C[C@@H]1O[C@@H](O[C@@H]2C=C3CC[C@@H]4[C@H](CC[C@]5(C)[C@@H](c6ccc(=O)oc6)CC[C@]45O)[C@@]3(C)CC2)[C@H](O)[C@H](O)[C@H]1O` [Proscillaridin] gave a Percent cross-immunoreactivity (3E9 mAb) of 3%.
In the case of `C[C@]12CC[C@H](O)C[C@H]1CC[C@@H]1[C@@H]2CC[C@]2(C)[C@@H](c3ccc(=O)oc3)C[C@H]3O[C@]132` [Resibufagenin], the “4H2 Percent cross-immunoreactivity” value (4H2 mAb) is reported as 0.2% and the “4G4 Percent cross-immunoreactivity” value (4G4 mAb) is reported as 0.6%.
In the case of `CC(=O)S[C@@H]1CC2=CC(=O)CC[C@]2(C)[C@H]2CC[C@@]3(C)[C@@H](CC[C@@]34CCC(=O)O4)[C@H]12` [Spironolactone], the Percent cross-immunoreactivity (3E9 mAb) is reported as 0.22%.
Compound Telocinobufotoxin has a Percent cross-immunoreactivity (3E9 mAb) of 7%.
